The values below come from patent US12180192B2, “Modulators of THR-β and methods of use thereof” (ALIGOS THERAPEUTICS, INC., priority 2019, dated 2024).

In experiment [1] the test system is CPT1A gene expression in Huh-7 cells. Kind of experiment: Huh-7 differential gene expression, CPT1A RT-qPCR (Assay 3). Format: cell-based. As to conditions: Homo sapiens, Huh-7, 24 h; for EC50: read-out: Activity category Assay 3 EC50; for Emax: read-out: Activity category Assay 3 Emax. How it is done:
Huh-7 Differential Gene Expression (Assay 3)
Fetal bovine serum (FBS) was incubated with washed resin (50 mg resin/mL FBS; resin weight is dry weight of resin prior to washing) for 5 hr at room temperature on a rotor. The FBS was separated from the resin via centrifugation and incubated with new, washed resin for 18 h at room temperature on a rotor.
Cell Culture and Drug Treatment
Huh-7 cells were cultured in DMEM (10-013-CM, Corning) supplemented with 10% FBS and 1% Pen-Strep at 37° C. under 5% C02. When 70-80% confluence was reached, the cells were removed by trypsinization. The medium was aspirated from the cell culture dish, the cell monolayer was washed with 1×PBS, and 0.05% trypsin, 0.53 mM EDTA (25-052-CV, Corning) solution was added to the dish. After 3 min incubation, the cells were detached completely by repeatedly pipetting solution onto the monolayer. Equal volume of DMEM supplemented with 10% rFBS and 1% Pen-Strep (TH-depleted DMEM) was added to the dish to inactivate the trypsin. The cell suspension was centrifuged at 350×g at room temperature for 3 min. The supernatant was aspirated out and the cell pellet was resuspended in TH-depleted DMEM. […] After 24 hr incubation, the media was replaced with treatment media. All compounds were serially diluted in DMSO and final concentrations were reached by dilution in TH-depleted DMEM (0.1% DMSO). The cells were incubated in treatment media for 24 hr. Treatments were performed in biological duplicates.
After 24 hr in treatment media, the cells were lysed directly on the culture plates and cDNA was produced using the TaqMan™ Fast Advanced Cells-to-CT™ Kit (A35374, Invitrogen) and following the manufacturer's protocol. RT-qPCR for CPT1A (Hs00912671_m1) and two housekeeping genes, ACTB (Hs01060665_g1) and TFG (Hs02832013_g1), was performed using TaqMan™ Fast Advanced Master Mix. RT-qPCR reactions were run on the qTOWER^3 84 G (Analytik Jena) in technical duplicates.
ΔRn values were obtained from the qPCRsoft384 1.0 software and CPT1A gene expression was quantified via the 2-ΔΔCt method. Dose-response curves were generated using GraphPad Prism 8 using four parameter logistic equation without top constraint to derive EC50 and Emax.

Experiment [2] has as its target T1, human thyroid receptor beta ligand-binding domain (LBD) (Homo sapiens, UniProt P10828).
T1 construct: purchased Invitrogen
T1 sequence (P10828 217-461 limits assumed): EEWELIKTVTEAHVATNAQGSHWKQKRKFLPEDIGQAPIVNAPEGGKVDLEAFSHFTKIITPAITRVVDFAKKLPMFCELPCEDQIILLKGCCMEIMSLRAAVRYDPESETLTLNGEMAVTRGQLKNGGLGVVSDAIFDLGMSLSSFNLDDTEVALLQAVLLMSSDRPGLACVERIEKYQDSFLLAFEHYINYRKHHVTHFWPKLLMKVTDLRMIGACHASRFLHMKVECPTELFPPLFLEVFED
Kind of experiment: TR-FRET thyroid receptor beta coactivator assay (THR biochemical assay, Assay 1). Summed up:
(§1)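 Agonist-driven coactivator recruitment measured by TR-FRET: terbium anti-GST antibody (2 nM) bound to GST-LBD of TRβ or TRα (1 nM final, stated for β), with fluorescein SRC2-2 peptide at 200 nM. Compounds at 1% DMSO. Read after 1 h, room temperature, protected from light.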
A general note: Time-resolved FRET reads energy transfer from a long-lived donor to a nearby acceptor.

In experiment [3] the target is T2, human thyroid receptor alpha ligand-binding domain (LBD) (Homo sapiens, UniProt P10827).
T2 construct: purchased Invitrogen
Kind of experiment: TR-FRET thyroid receptor alpha coactivator assay (THR biochemical assay, Assay 1). Summed up: as §1

Experiment [4] concerns the target T3, THR beta (Homo sapiens, UniProt P10828).
T3 construct: expressed in transfected cells; host or cells: HEK293T (ATCC CRL-3216)
T3 sequence (P10828 1-461): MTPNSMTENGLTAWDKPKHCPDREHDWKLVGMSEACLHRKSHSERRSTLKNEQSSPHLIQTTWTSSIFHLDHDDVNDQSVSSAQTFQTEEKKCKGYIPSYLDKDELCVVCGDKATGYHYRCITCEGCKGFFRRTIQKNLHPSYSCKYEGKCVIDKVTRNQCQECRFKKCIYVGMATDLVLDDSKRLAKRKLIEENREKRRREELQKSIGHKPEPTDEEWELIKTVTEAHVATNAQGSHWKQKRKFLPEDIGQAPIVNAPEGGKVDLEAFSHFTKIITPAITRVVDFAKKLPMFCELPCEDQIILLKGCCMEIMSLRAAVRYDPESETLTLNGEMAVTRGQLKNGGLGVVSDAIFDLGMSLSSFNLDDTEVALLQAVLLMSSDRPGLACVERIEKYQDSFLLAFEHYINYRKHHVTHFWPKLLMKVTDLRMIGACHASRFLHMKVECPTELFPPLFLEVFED
T3 sequence (P19793 1-462 partner): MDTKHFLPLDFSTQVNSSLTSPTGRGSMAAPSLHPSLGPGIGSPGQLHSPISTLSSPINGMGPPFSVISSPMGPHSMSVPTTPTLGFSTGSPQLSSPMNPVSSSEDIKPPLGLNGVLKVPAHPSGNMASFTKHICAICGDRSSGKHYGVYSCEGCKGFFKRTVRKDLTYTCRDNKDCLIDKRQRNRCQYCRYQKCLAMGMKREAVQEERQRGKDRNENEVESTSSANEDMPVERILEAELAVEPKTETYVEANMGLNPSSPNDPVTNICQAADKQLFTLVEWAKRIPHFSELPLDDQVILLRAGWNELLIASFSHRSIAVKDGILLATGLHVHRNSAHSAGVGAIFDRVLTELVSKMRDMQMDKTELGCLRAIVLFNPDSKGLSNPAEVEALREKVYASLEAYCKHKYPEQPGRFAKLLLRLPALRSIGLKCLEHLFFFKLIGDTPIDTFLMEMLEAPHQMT
Kind of experiment: HEK293T THR beta/RXR luciferase reporter assay (Assay 2). The experiment is classed as cell-based. Summed up: (§2)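 Compounds tested as ten-point five-fold dilution series for 18-24 h on transiently transfected HEK293T cells carrying TRE-driven luciferase plus RXR and either THR alpha or beta expression plasmids. Read-out by One-Glo luminescence, expressed as percent agonism relative to negative and positive controls.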
A general note: Reporter assays use an easily measured gene product as a stand-in for the process of interest.

The target in experiment [5] is T4, THR alpha (Homo sapiens, UniProt P10827).
T4 construct: expressed in transfected cells; host or cells: HEK293T (ATCC CRL-3216)
T4 sequence (P10827 1-410 isoform P10827-2): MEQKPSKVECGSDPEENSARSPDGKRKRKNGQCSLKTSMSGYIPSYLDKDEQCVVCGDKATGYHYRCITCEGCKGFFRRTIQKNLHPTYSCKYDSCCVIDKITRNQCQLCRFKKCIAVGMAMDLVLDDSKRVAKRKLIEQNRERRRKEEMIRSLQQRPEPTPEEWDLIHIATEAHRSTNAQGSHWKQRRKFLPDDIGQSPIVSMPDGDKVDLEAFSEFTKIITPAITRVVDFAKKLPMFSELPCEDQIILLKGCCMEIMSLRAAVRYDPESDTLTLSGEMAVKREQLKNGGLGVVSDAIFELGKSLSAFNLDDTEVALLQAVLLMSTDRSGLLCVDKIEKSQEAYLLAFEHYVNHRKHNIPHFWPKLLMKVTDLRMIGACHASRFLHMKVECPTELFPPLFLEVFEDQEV
T4 sequence (P19793 1-462 partner): T3 sequence (P19793 1-462 partner)
The experiment in a line: HEK293T THR alpha/RXR luciferase reporter assay (Assay 2). Format: cell-based. To be noted: Assay 2. Summed up:
as §2

Setting [6] is: Table 6, Huh-7 cells, CPT1A, 24 hr treatment.

Read-outs that look alike come from different tables or passages of the source.

The term EC50 denotes the midpoint of the concentration-response curve. As a reminder, the Emax is the size of the effect at its maximum, as opposed to the concentration needed. As to `C#Cc1nn(-c2cc(Cl)c(Oc3cc(C(C)C)c(=O)[nH]n3)c(Cl)c2)c(=O)[nH]c1=O` [Compound 11, 2-[3,5-dichloro-4-[(5-isopropyl-6-oxo-1H-pyridazin-3-yl)oxy]phenyl]-6-ethynyl-4H-1,2,4-triazine-3,5-dione], in experiment [1] (setting [6]), the EC50 was less than 100 nM and the Emax is more than 75%.
In the case of `CC(C)c1cc(Oc2c(Cl)cc(-n3nc(CC(=O)O)c(=O)[nH]c3=O)cc2Cl)n[nH]c1=O` [Compound 13, 2-(2-(3,5-dichloro-4-((5-isopropyl-6-oxo-1,6-dihydropyridazin-3-yl)oxy)phenyl)-3,5-dioxo-2,3,4,5-tetra-hydro-1,2,4-triazin-6-yl)acetic acid], in experiment [1] (setting [6]), the EC50 was more than 100 nM and the Emax is more than 75%.
For the compound `N[C@@H](Cc1cc(I)c(Oc2ccc(O)c(I)c2)c(I)c1)C(=O)O` [Compound T3, triiodothyronine, reference compound], in experiment [1], the EC50 was less than 100 nM and the Emax is more than 75%.
Take `Nc1nn(-c2cc(Cl)c(Oc3cc(C4CCCC4)c(=O)[nH]n3)c(Cl)c2)c(=O)[nH]c1=O` [Compound 42, 6-amino-2-(3,5-dichloro-4-((5-cyclopentyl-6-oxo-1,6-dihydropyridazin-3-yl)oxy)phenyl)-1,2,4-triazine-3,5(2H,4H)-dione]: in experiment [1] (setting [6]), the EC50 was less than 100 nM and the Emax lay within 50 to 75%.
Regarding `CCCc1c[nH]c2ccc(Oc3c(Cl)cc(-n4nc(C#N)c(=O)[nH]c4=O)cc3Cl)nc12` [Compound 19], the EC50 in experiment [2] (THR-beta, TR-FRET coactivator assay, read-out: Activity category Assay 1 (EC50, THR-beta agonist)) is less than 50 nM; in experiment [3] (Table 4, THR-alpha, read-out: Activity category Assay 1 (EC50, THR-alpha agonist activity)), more than 25000 nM; in experiment [4] (THR-beta, HEK293T reporter assay, read-out: Activity category Assay 2 (EC50, THR-beta agonist)), 1000 to 10000 nM; in experiment [5] (Table 4, THR-alpha, read-out: Activity category Assay 2 (EC50, THR-alpha agonist activity)), 1000 to 10000 nM. Further, the Emax in experiment [2] (Table 5, Assay 1, THRβ, read-out: Activity category Assay 1 THRβ (Emax)) is less than 50%; in experiment [3] (Table 5, THRα, read-out: Activity category Assay 1 THRα (Emax)), less than 50%; in experiment [4] (HEK-293T, Table 5, Assay 2, THRβ, read-out: Activity category Assay 2 THRβ (Emax)), more than 75%; in experiment [5] (HEK-293T, Table 5, THRα, read-out: Activity category Assay 2 THRα (Emax)), less than 50%.
